{"source": "the supplement of paper PMC9663587", "key": {"[1]": {"compound": "CCc1cnn2c(NCc3ccc[n+]([O-])c3)cc(N3CCCC[C@H]3CCO)nc12", "test": "increase in dead-cell fraction, 72 h; higher = more death;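 also: breast cancer cell lines in 384-well plates, stained with Hoechst plus LIVE/DEAD far red dye and imaged, cells above an LDR intensity threshold counted dead, Hoechst-negative corpses included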"}, "[2]": {"compound": "C=CC(=O)Nc1ccc(C(=O)Nc2[nH]nc3c2CN(C(=O)N[C@H](CN(C)C)c2ccccc2)C3(C)C)cc1 [YKL-5-124]", "test": "increase in dead-cell fraction, 72 h; higher = more death"}, "[3]": {"compound": "CCOc1cc2ncc(C#N)c(Nc3ccc(OCc4ccccn4)c(Cl)c3)c2cc1NC(=O)/C=C/CN(C)C [Neratinib/HKI272]", "test": "increase in dead-cell fraction, 72 h; higher = more death"}, "[4]": {"compound": "CC(=O)c1c(C)c2cnc(Nc3ccc(N4CCNCC4)cn3)nc2n(C2CCCC2)c1=O", "test": "increase in dead-cell fraction, 72 h; higher = more death"}, "[5]": {"compound": "T1, CN(C)C/C=C/C(=O)Nc1ccc(C(=O)N2CCC[C@@H](Nc3ncc(Cl)c(-c4c[nH]c5ccccc45)n3)C2)cc1 [THZ531]", "test": "increase in dead-cell fraction, 72 h; higher = more death"}, "[6]": {"compound": "CC(=O)c1c(C)c2cnc(Nc3ccc(N4CCN(CCOCCOCCOCCNC(=O)COc5cccc6c5C(=O)N(C5CCC(=O)NC5=O)C6=O)CC4)cn3)nc2n(C2CCCC2)c1=O [BSJ-03-123]", "test": "increase in dead-cell fraction, 72 h; higher = more death"}, "[7]": {"compound": "T2, CN(C)C/C=C/C(=O)Nc1ccc(C(=O)Nc2cccc(Nc3ncc(Cl)c(-c4c[nH]c5ccccc45)n3)c2)cc1 [THZ1]", "test": "increase in dead-cell fraction, 72 h; higher = more death"}, "[8]": {"compound": "CN(C)C(=O)c1cc2cnc(Nc3ccc(N4CCNCC4)cn3)nc2n1C1CCCC1 [LEE011/Ribociclib]", "test": "increase in dead-cell fraction, 72 h; higher = more death"}, "[9]": {"compound": "COc1ccc2c(c1)[C@]1(C[C@H]1c1ccc3c(/C=C/c4ccc(CN5C[C@@H](C)O[C@@H](C)C5)cc4)n[nH]c3c1)C(=O)N2"}, "[10]": {"compound": "CNCc1ccc(-c2[nH]c3cc(F)cc4c3c2CCNC4=O)cc1 [Rucaparib]"}, "[11]": {"compound": "CN1CCN(CCOc2cc(OC3CCOCC3)c3c(Nc4c(Cl)ccc5c4OCO5)ncnc3c2)CC1 [Saracatinib/AZD0530]"}, "[12]": {"compound": "CCCCOc1c(C(=O)c2c(F)cc(C)cc2F)c[nH]c2nncc1-2"}, "[13]": {"compound": "COc1cc2c(Oc3ccc4[nH]c(C)cc4c3F)ncnc2cc1OCCCN1CCCC1 [Cediranib/AZD2171]"}, "[14]": {"compound": "CO[C@@H](C)Cn1c(=O)n(C)c2cnc3ccc(-c4cncc(C(C)(C)O)c4)cc3c21"}, "[15]": {"compound": "CC(C)Nc1cc(-c2c[nH]c(C(=O)N[C@H](CO)c3cccc(Cl)c3)c2)c(Cl)cn1 [BVD523]"}, "[16]": {"compound": "Cc1nc(NC(=O)N2CCC[C@H]2C(N)=O)sc1-c1ccnc(C(C)(C)C(F)(F)F)c1 [Alpelisib/BYL719]"}, "[17]": {"compound": "C=CCn1c(=O)c2cnc(Nc3ccc(N4CCN(C)CC4)cc3)nc2n1-c1cccc(C(C)(C)O)n1 [AZD1775]"}, "[18]": {"compound": "T1, THZ531"}, "[19]": {"compound": "T2, THZ1"}, "[20]": {"compound": "CC(=O)Nc1cccc(-n2c(=O)n(C3CC3)c(=O)c3c(Nc4ccc(I)cc4F)n(C)c(=O)c(C)c32)c1"}}}
{"cell line": "PDX1258", "values": [{"measurement": "increase in dead-cell fraction", "setting": "[1]; 0.0001 µM", "value": -0.0003}, {"measurement": "increase in dead-cell fraction", "setting": "[1]; 0.0003162 µM", "value": -0.0056}, {"measurement": "increase in dead-cell fraction", "setting": "[1]; 0.001 µM", "value": -0.0037}, {"measurement": "increase in dead-cell fraction", "setting": "[1]; 0.003162 µM", "value": 0.0067}, {"measurement": "increase in dead-cell fraction", "setting": "[1]; 0.01 µM", "value": 0.0568}, {"measurement": "increase in dead-cell fraction", "setting": "[1]; 0.03162 µM", "value": 0.537}, {"measurement": "increase in dead-cell fraction", "setting": "[1]; 0.1 µM", "value": 0.662}, {"measurement": "increase in dead-cell fraction", "setting": "[1]; 0.3162 µM", "value": 0.643}, {"measurement": "increase in dead-cell fraction", "setting": "[1]; 1 µM", "value": 0.658}, {"measurement": "increase in dead-cell fraction", "setting": "[2]; 0.001 µM", "value": 0.019}, {"measurement": "increase in dead-cell fraction", "setting": "[2]; 0.003162 µM", "value": 0.0602}, {"measurement": "increase in dead-cell fraction", "setting": "[2]; 0.01 µM", "value": 0.0734}, {"measurement": "increase in dead-cell fraction", "setting": "[2]; 0.03162 µM", "value": 0.107}, {"measurement": "increase in dead-cell fraction", "setting": "[2]; 0.1 µM", "value": 0.033}, {"measurement": "increase in dead-cell fraction", "setting": "[2]; 0.3162 µM", "value": 0.165}, {"measurement": "increase in dead-cell fraction", "setting": "[2]; 1 µM", "value": 0.153}, {"measurement": "increase in dead-cell fraction", "setting": "[2]; 3.162 µM", "value": 0.153}, {"measurement": "increase in dead-cell fraction", "setting": "[2]; 10 µM", "value": 0.298}, {"measurement": "increase in dead-cell fraction", "setting": "[3]; 0.0003162 µM", "value": 0.0046}, {"measurement": "increase in dead-cell fraction", "setting": "[3]; 0.001 µM", "value": 0.0126}, {"measurement": "increase in dead-cell fraction", "setting": "[3]; 0.003162 µM", "value": 0.0014}, {"measurement": "increase in dead-cell fraction", "setting": "[3]; 0.01 µM", "value": -0.0047}, {"measurement": "increase in dead-cell fraction", "setting": "[3]; 0.03162 µM", "value": 0.0084}, {"measurement": "increase in dead-cell fraction", "setting": "[3]; 0.1 µM", "value": 0.0159}, {"measurement": "increase in dead-cell fraction", "setting": "[3]; 0.3162 µM", "value": 0.0244}, {"measurement": "increase in dead-cell fraction", "setting": "[3]; 1 µM", "value": 0.0372}, {"measurement": "increase in dead-cell fraction", "setting": "[3]; 3.162 µM", "value": 0.118}, {"measurement": "increase in dead-cell fraction", "setting": "[4]; 0.0003162 µM", "value": 0.0009}, {"measurement": "increase in dead-cell fraction", "setting": "[4]; 0.001 µM", "value": -0.0052}, {"measurement": "increase in dead-cell fraction", "setting": "[4]; 0.003162 µM", "value": -0.0004}, {"measurement": "increase in dead-cell fraction", "setting": "[4]; 0.01 µM", "value": 0.0095}, {"measurement": "increase in dead-cell fraction", "setting": "[4]; 0.03162 µM", "value": 0.0043}, {"measurement": "increase in dead-cell fraction", "setting": "[4]; 0.1 µM", "value": 0.0062}, {"measurement": "increase in dead-cell fraction", "setting": "[4]; 0.3162 µM", "value": -0.0028}, {"measurement": "increase in dead-cell fraction", "setting": "[4]; 1 µM", "value": -0.0014}, {"measurement": "increase in dead-cell fraction", "setting": "[4]; 3.162 µM", "value": 0.0061}, {"measurement": "increase in dead-cell fraction", "setting": "[5]; 0.0001 µM", "value": 0.0134}, {"measurement": "increase in dead-cell fraction", "setting": "[5]; 0.0003162 µM", "value": -0.0091}, {"measurement": "increase in dead-cell fraction", "setting": "[5]; 0.001 µM", "value": -0.0052}, {"measurement": "increase in dead-cell fraction", "setting": "[5]; 0.003162 µM", "value": -0.0071}, {"measurement": "increase in dead-cell fraction", "setting": "[5]; 0.01 µM", "value": -0.0127}, {"measurement": "increase in dead-cell fraction", "setting": "[5]; 0.03162 µM", "value": 0.0327}, {"measurement": "increase in dead-cell fraction", "setting": "[5]; 0.1 µM", "value": 0.239}, {"measurement": "increase in dead-cell fraction", "setting": "[5]; 0.3162 µM", "value": 0.246}, {"measurement": "increase in dead-cell fraction", "setting": "[5]; 1 µM", "value": 0.27}, {"measurement": "increase in dead-cell fraction", "setting": "[6]; 0.001 µM", "value": -0.0086}, {"measurement": "increase in dead-cell fraction", "setting": "[6]; 0.003162 µM", "value": 0.027}, {"measurement": "increase in dead-cell fraction", "setting": "[6]; 0.01 µM", "value": -0.004}, {"measurement": "increase in dead-cell fraction", "setting": "[6]; 0.03162 µM", "value": -0.0154}, {"measurement": "increase in dead-cell fraction", "setting": "[6]; 0.1 µM", "value": 0.0044}, {"measurement": "increase in dead-cell fraction", "setting": "[6]; 0.3162 µM", "value": -0.0026}, {"measurement": "increase in dead-cell fraction", "setting": "[6]; 1 µM", "value": -0.001}, {"measurement": "increase in dead-cell fraction", "setting": "[6]; 3.162 µM", "value": -0.0102}, {"measurement": "increase in dead-cell fraction", "setting": "[6]; 10 µM", "value": 0.284}, {"measurement": "increase in dead-cell fraction", "setting": "[7]; 0.0001 µM", "value": -0.0269}, {"measurement": "increase in dead-cell fraction", "setting": "[7]; 0.0003162 µM", "value": 0.0089}, {"measurement": "increase in dead-cell fraction", "setting": "[7]; 0.001 µM", "value": -0.01}, {"measurement": "increase in dead-cell fraction", "setting": "[7]; 0.003162 µM", "value": -0.0015}, {"measurement": "increase in dead-cell fraction", "setting": "[7]; 0.01 µM", "value": 0.0153}, {"measurement": "increase in dead-cell fraction", "setting": "[7]; 0.03162 µM", "value": 0.188}, {"measurement": "increase in dead-cell fraction", "setting": "[7]; 0.1 µM", "value": 0.237}, {"measurement": "increase in dead-cell fraction", "setting": "[7]; 0.3162 µM", "value": 0.304}, {"measurement": "increase in dead-cell fraction", "setting": "[7]; 1 µM", "value": 0.398}, {"measurement": "increase in dead-cell fraction", "setting": "[8]; 0.001 µM", "value": -0.0077}, {"measurement": "increase in dead-cell fraction", "setting": "[8]; 0.003162 µM", "value": 0.003}, {"measurement": "increase in dead-cell fraction", "setting": "[8]; 0.01 µM", "value": -0.0078}, {"measurement": "increase in dead-cell fraction", "setting": "[8]; 0.03162 µM", "value": -0.0297}, {"measurement": "increase in dead-cell fraction", "setting": "[8]; 0.1 µM", "value": -0.0249}, {"measurement": "increase in dead-cell fraction", "setting": "[8]; 0.3162 µM", "value": 0.0184}, {"measurement": "increase in dead-cell fraction", "setting": "[8]; 1 µM", "value": -0.0032}, {"measurement": "increase in dead-cell fraction", "setting": "[8]; 3.162 µM", "value": 0.0025}, {"measurement": "increase in dead-cell fraction", "setting": "[8]; 10 µM", "value": 0.0066}, {"measurement": "GR50, 72 h", "setting": "[9]", "value": 0.00294, "unit": "µM"}, {"measurement": "GR50, 72 h", "setting": "[10]", "value": "> 10", "unit": "µM"}, {"measurement": "GR50, 72 h", "setting": "[11]", "value": 0.722, "unit": "µM"}, {"measurement": "GR50, 72 h", "setting": "[12]", "value": "< 0.001", "unit": "µM"}, {"measurement": "GR50, 72 h", "setting": "[13]", "value": 4.71, "unit": "µM"}, {"measurement": "GR50, 72 h", "setting": "[14]", "value": 0.0944, "unit": "µM"}, {"measurement": "GR50, 72 h", "setting": "[15]", "value": 4.62, "unit": "µM"}, {"measurement": "GR50, 72 h", "setting": "[16]", "value": "> 10", "unit": "µM"}, {"measurement": "GR50, 72 h", "setting": "[17]", "value": 0.0187, "unit": "µM"}, {"measurement": "GR50, 72 h", "setting": "[18]", "value": 0.0492, "unit": "µM"}, {"measurement": "GR50, 72 h", "setting": "[19]", "value": 0.0148, "unit": "µM"}, {"measurement": "GR50, 72 h", "setting": "[20]", "value": "> 1", "unit": "µM"}]}
